In the NIST ThermoML archive (doi:10.1016/j.jct.2016.06.012):

Experiment: xn = mol fraction of the nth substance listed
Settings: 100 kPa, Liquid; for viscosity: Capillary tube (Ostwald / Ubbelohde) method; for mass density: Vibrating tube method

CCn1cc[n+](C)c1C.O=S(=O)([N-]S(=O)(=O)C(F)(F)F)C(F)(F)F + O=C1CCCO1
Settings | mass density [kg/m3] | viscosity [mPa·s]
293.15 K, x1 = 0.0493 | 1186.33 | 2.39
293.15 K, x1 = 0.1001 | 1232.87 | 3.16
293.15 K, x1 = 0.1526 | 1271.98 | 4.27
293.15 K, x1 = 0.2001 | 1301.42 | 5.28
293.15 K, x1 = 0.3001 | 1350.26 | 8.11
293.15 K, x1 = 0.4013 | 1387.19 | 12.59
293.15 K, x1 = 0.5004 | 1415.28 | 19.41
293.15 K, x1 = 0.5995 | 1437.76 | 29.23
293.15 K, x1 = 0.6929 | 1455.24 | 40.61
293.15 K, x1 = 0.814 | 1473.91 | 57.8
293.15 K, x1 = 0.9001 | 1485.09 | 71.36
293.15 K, x1 = 1 | 1496.32 | 89.27
298.15 K, x1 = 0.0493 | 1181.34 | 2.2
298.15 K, x1 = 0.1001 | 1227.92 | 2.88
298.15 K, x1 = 0.1526 | 1267.02 | 3.89
298.15 K, x1 = 0.2001 | 1296.47 | 4.75
298.15 K, x1 = 0.3001 | 1345.33 | 7.21
298.15 K, x1 = 0.4013 | 1382.26 | 10.79
298.15 K, x1 = 0.5004 | 1410.36 | 16.23
298.15 K, x1 = 0.5995 | 1432.85 | 23.73
298.15 K, x1 = 0.6929 | 1450.35 | 32.36
298.15 K, x1 = 0.814 | 1469.03 | 45.73
298.15 K, x1 = 0.9001 | 1480.21 | 56.03
298.15 K, x1 = 1 | 1491.47 | 70.77
303.15 K, x1 = 0.0493 | 1176.42 | 2.02
303.15 K, x1 = 0.1001 | 1222.97 | 2.64
303.15 K, x1 = 0.1526 | 1262.07 | 3.55
303.15 K, x1 = 0.2001 | 1291.53 | 4.31
303.15 K, x1 = 0.3001 | 1340.4 | 6.49
303.15 K, x1 = 0.4013 | 1377.35 | 9.66
303.15 K, x1 = 0.5004 | 1405.48 | 13.87
303.15 K, x1 = 0.5995 | 1427.99 | 19.69
303.15 K, x1 = 0.6929 | 1445.51 | 26.32
303.15 K, x1 = 0.814 | 1464.21 | 36.61
303.15 K, x1 = 0.9001 | 1475.4 | 45.12
303.15 K, x1 = 1 | 1486.67 | 57.02
308.15 K, x1 = 0.0493 | 1171.5 | 1.87
308.15 K, x1 = 0.1001 | 1218.03 | 2.42
308.15 K, x1 = 0.1526 | 1257.12 | 3.23
308.15 K, x1 = 0.2001 | 1286.58 | 3.92
308.15 K, x1 = 0.3001 | 1335.47 | 5.84
308.15 K, x1 = 0.4013 | 1372.45 | 8.44
308.15 K, x1 = 0.5004 | 1400.6 | 11.97
308.15 K, x1 = 0.5995 | 1423.13 | 16.7
308.15 K, x1 = 0.6929 | 1440.66 | 21.94
308.15 K, x1 = 0.814 | 1459.39 | 30.04
308.15 K, x1 = 0.9001 | 1470.6 | 36.72
308.15 K, x1 = 1 | 1481.87 | 46.6
313.15 K, x1 = 0.0493 | 1166.58 | 1.74
313.15 K, x1 = 0.1001 | 1213.09 | 2.24
313.15 K, x1 = 0.1526 | 1252.18 | 2.97
313.15 K, x1 = 0.2001 | 1281.64 | 3.59
313.15 K, x1 = 0.3001 | 1330.56 | 5.24
313.15 K, x1 = 0.4013 | 1367.56 | 7.44
313.15 K, x1 = 0.5004 | 1395.73 | 10.46
313.15 K, x1 = 0.5995 | 1418.28 | 14.19
313.15 K, x1 = 0.6929 | 1435.84 | 18.31
313.15 K, x1 = 0.814 | 1454.58 | 24.98
313.15 K, x1 = 0.9001 | 1465.81 | 30.3
313.15 K, x1 = 1 | 1477.09 | 38.62
318.15 K, x1 = 0.0493 | 1161.65 | 1.62
318.15 K, x1 = 0.1001 | 1208.15 | 2.07
318.15 K, x1 = 0.1526 | 1247.24 | 2.72
318.15 K, x1 = 0.2001 | 1276.71 | 3.27
318.15 K, x1 = 0.3001 | 1325.64 | 4.7
318.15 K, x1 = 0.4013 | 1362.67 | 6.63
318.15 K, x1 = 0.5004 | 1390.87 | 9.21
318.15 K, x1 = 0.5995 | 1413.44 | 12.26
318.15 K, x1 = 0.6929 | 1431.02 | 15.7
318.15 K, x1 = 0.814 | 1449.79 | 21.08
318.15 K, x1 = 0.9001 | 1461.03 | 25.54
318.15 K, x1 = 1 | 1472.32 | 32.33
323.15 K, x1 = 0.0493 | 1156.72 | 1.52
323.15 K, x1 = 0.1001 | 1203.21 | 1.9
323.15 K, x1 = 0.1526 | 1242.31 | 2.5
323.15 K, x1 = 0.2001 | 1271.78 | 3.02
323.15 K, x1 = 0.3001 | 1320.73 | 4.29
323.15 K, x1 = 0.4013 | 1357.79 | 6.05
323.15 K, x1 = 0.5004 | 1386.01 | 8.19
323.15 K, x1 = 0.5995 | 1408.61 | 10.68
323.15 K, x1 = 0.6929 | 1426.21 | 13.74
323.15 K, x1 = 0.814 | 1445.01 | 18.23
323.15 K, x1 = 0.9001 | 1456.26 | 21.94
323.15 K, x1 = 1 | 1467.56 | 27.06
